# According to patent publication US9446015B2, “Quinone based nitric oxide donating compounds for ophthalmic use” (NICOX SCIENCE IRELAND, priority 2012, dated 2016):
# Tests used:
# [1] = test system: rat L-NAME-induced hypertension; test: Systolic blood pressure in rat L-NAME-induced hypertension, single oral dose; type: in vivo; settings: Comp. (6) 100 mg/kg oral; 3 hours
# Procedure: To assess the in vivo NO-dependent activity, Compound (6) was evaluated for systolic blood pressure (SBP) reduction efficacy in a rat model of NO-deprivation induced by L-NAME and compared with 5-ISMN.
# (§1) Fasted male SD rats (250-300 g, n=3-5 per group), obtained from Harlan Italy (Correzzana, Milan, Italy) were orally treated with tested compounds or vehicle (DMSO:Methocel 1% 2/98 v/v) in a total volume of 4 ml/kg by gavage. At each time point (1, 3, 6 and 24 h) animals were deeply anesthetized with Zoletil® 100 (3 mg/kg), given intramuscularly. Thereafter, a pressure catheter (Samba Sensors, Harvard Apparatus, UK) was introduced into the common carotid artery for central blood pressure measurement. Pressure transducer was connected to a personal computer, in order to allow real time monitor of the pressure tracing. After 10 minutes of basal recording, L-NAME (50 mg/kg) was administered intraperitoneally and the effect on SBP monitored. When the SBP stabilized (5 minutes without variations) the recording was stopped. To further confirm that functional activity was NO-dependent, at each time point blood ^15N-nitrite levels were measured following the procedure described in Example 12.
# [2] = test system: rat L-NAME-induced hypertension; test: In vivo tolerance evaluation, L-NAME-induced hypertension after 5-day oral treatment; settings: 5-ISMN 30 mg/kg, compound (6) 100 mg/kg
# Procedure: as §1
# To investigate whether the compound (6) induced nitrate tolerance, as observed for most of the drugs belonging to the nitrate class, the L-NAME-induced hypertension rat model described in Example 7 was performed following a repeated oral treatment. Rats were orally treated for 5 days with vehicle, compound (6) (100 mg/kg) or 5-ISMN (30 mg/kg). […] The experiments were performed at the peak effect (1 hour for 5-ISMN and 3 hours for Compound (6)), results are reported in Table 3.
# [3] = test system: lipidic peroxidation of membrane lipids in rat hepatocytes (hepatic microsomal membranes); test: In vitro antioxidant activity (TBARS test); type: biochemical; settings: Method A (ADP-FeCl3 and NADPH); inhibition of TBARS production after 30 min; read-out: Antioxidant activity IC50 μM (CL 95%)
# Procedure: The antioxidant properties of compounds (6) (disclosed in example 1) and compound (23) (disclosed in example 19) and reference antioxidant compounds were assessed after NADPH-induced lipidic peroxidation of membrane lipids in rat hepatocytes using the detection of 2-thiobarbituric acid reactive substances (TBARS) by visible spectroscopy.
# Hepatic microsomal membranes from male Wistar rats (200-250 g) were prepared by differential centrifugation (8000 g, 20 min; 120000 g, 1 h) in a HEPES/sucrose buffer (10 mM, 250 mM, pH 7.4) and stored at −80° C. Incubation was performed at 37° C. in a Tris-HCl/KCl (100 mM/150 mM, pH 7.4) containing microsomal membranes (2 mg prot/mL), sodium ascorbate (100 μM), and DMSO solutions of the tested compounds. Lipid peroxidation was initiated by adding ADP-FeCl3 and NADPH (Method A) or 2.5 μM FeSO4 (Method B) (as described by Boschi D. et al., J. Med. Chem. 2006, 49:2886-2897). Aliquots were taken from the incubation mixture at 5, 15, and 30 min and treated with trichloroacetic acid (TCA) 10% w/v. Lipid peroxidation was assessed by spectrophotometric (543 nm) determination of the TBARS consisting mainly of malondialdehyde (MDA). TBARS concentrations (expressed in nmol/mg protein) were obtained by interpolation with a MDA standard curve. The antioxidant activity of tested compounds was evaluated as the percent inhibition of TBARS production with respect to control samples, using the values obtained after 30 min of incubation. IC50 values were calculated by nonlinear regression analysis.
structure (smiles),measurement,setting,value
"COC1=C(OC)C(=O)C(CCCCCCCCCCO[N+](=O)[O-])=C(C)C1=O [Compound (6), 10-(4,5-dimethoxy-2-methyl-3,6-dioxocyclohexa-1,4-dienyl)decyl nitrate]","Delta vs basal (mmHg), systolic blood pressure",[1],14 ± 3.8 mmHg
same,efficacy in preventing L-NAME-induced hypertension after 5-day oral treatment,[2],counteracted L-NAME-induced hypertension
same,IC50,[3],2 µM
